Measured values reported in PubChem BioAssay (NCI).
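Compound exposure: 48 hours, 5 concentrations, 96-well plates. Here, GI50 denotes the concentration required for 50% inhibition of growth. TGI denotes the concentration required for complete inhibition of growth.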

Assays:
Experiment in all cases: inhibition of tumour cell growth, NCI panel, 48 h
786-0 renal = test system: 786-0 renal
A498 renal = test system: A498 renal
A549 NSCLC = test system: A549 NSCLC
ACHN renal = test system: ACHN renal
BT-549 breast = test system: BT-549 breast
CAKI-1 renal = test system: CAKI-1 renal
CCRF-CEM leukemia = test system: CCRF-CEM leukemia
COLO 205 colon = test system: COLO 205 colon
DU-145 prostate = test system: DU-145 prostate
EKVX NSCLC = test system: EKVX NSCLC
HCC-2998 colon = test system: HCC-2998 colon
HCT-116 colon = test system: HCT-116 colon
HCT-15 colon = test system: HCT-15 colon
HL-60(TB) leukemia = test system: HL-60(TB) leukemia
HOP-62 NSCLC = test system: HOP-62 NSCLC
HS 578T breast = test system: HS 578T breast
HT29 colon = test system: HT29 colon
IGROV1 ovarian = test system: IGROV1 ovarian
K-562 leukemia = test system: K-562 leukemia
KM12 colon = test system: KM12 colon
LOX IMVI melanoma = test system: LOX IMVI melanoma
M14 melanoma = test system: M14 melanoma
MALME-3M melanoma = test system: MALME-3M melanoma
MCF7 breast = test system: MCF7 breast
MDA-MB-231 breast = test system: MDA-MB-231 breast
MDA-MB-435 = test system: MDA-MB-435
NCI-H226 lung = test system: NCI-H226 lung
NCI-H23 lung = test system: NCI-H23 lung
NCI-H460 lung = test system: NCI-H460 lung
NCI-H522 lung = test system: NCI-H522 lung
NCI/ADR-RES ovarian = test system: NCI/ADR-RES ovarian
OVCAR-3 ovarian = test system: OVCAR-3 ovarian
OVCAR-4 ovarian = test system: OVCAR-4 ovarian
OVCAR-5 ovarian = test system: OVCAR-5 ovarian
OVCAR-8 ovarian = test system: OVCAR-8 ovarian
PC-3 prostate = test system: PC-3 prostate
RPMI-8226 leukemia = test system: RPMI-8226 leukemia
RXF 393 renal = test system: RXF 393 renal
SF-268 CNS = test system: SF-268 CNS
SF-295 CNS = test system: SF-295 CNS
SF-539 CNS = test system: SF-539 CNS
SK-MEL-2 melanoma = test system: SK-MEL-2 melanoma
SK-MEL-28 melanoma = test system: SK-MEL-28 melanoma
SK-MEL-5 melanoma = test system: SK-MEL-5 melanoma
SN12C renal = test system: SN12C renal
SNB-19 CNS = test system: SNB-19 CNS
SNB-75 CNS = test system: SNB-75 CNS
SR leukemia = test system: SR leukemia
SW-620 colon = test system: SW-620 colon
T-47D breast = test system: T-47D breast
TK-10 renal = test system: TK-10 renal
U251 CNS = test system: U251 CNS
UACC-257 melanoma = test system: UACC-257 melanoma
UACC-62 melanoma = test system: UACC-62 melanoma
UO-31 renal = test system: UO-31 renal
HOP-92 NSCLC = test system: HOP-92 NSCLC
MOLT-4 leukemia = test system: MOLT-4 leukemia
SK-OV-3 ovarian = test system: SK-OV-3 ovarian

S=c1nc(N2CCCCC2)c2cn[nH]c2[nH]1
TGI (786-0 renal): > 100 µM | TGI (A498 renal): > 100 µM | TGI (A549 NSCLC): > 100 µM | TGI (ACHN renal): > 100000 nM | TGI (BT-549 breast): > 100000 nM | TGI (CAKI-1 renal): > 100000 nM | TGI (CCRF-CEM leukemia): > 100 µM | TGI (COLO 205 colon): > 100 µM | TGI (DU-145 prostate): > 100 µM | TGI (EKVX NSCLC): > 100 µM | TGI (HCC-2998 colon): > 100 µM | TGI (HCT-116 colon): > 100000 nM | TGI (HCT-15 colon): > 100 µM | TGI (HL-60(TB) leukemia): 69.9 µM | TGI (HOP-62 NSCLC): > 100 µM | TGI (HS 578T breast): > 100 µM | TGI (HT29 colon): > 100 µM | TGI (IGROV1 ovarian): 56.5 µM | TGI (K-562 leukemia): > 100 µM | TGI (KM12 colon): > 100 µM | TGI (LOX IMVI melanoma): > 100000 nM | TGI (M14 melanoma): > 100 µM | TGI (MALME-3M melanoma): > 100000 nM | TGI (MCF7 breast): > 100 µM | TGI (MDA-MB-231 breast): > 100 µM | TGI (MDA-MB-435): > 100000 nM | TGI (NCI-H226 lung): > 100 µM | TGI (NCI-H23 lung): > 100 µM | TGI (NCI-H460 lung): > 100 µM | TGI (NCI-H522 lung): 41.4 µM | TGI (NCI/ADR-RES ovarian): > 100 µM | TGI (OVCAR-3 ovarian): > 100000 nM | TGI (OVCAR-4 ovarian): > 100000 nM | TGI (OVCAR-5 ovarian): > 100 µM | TGI (OVCAR-8 ovarian): > 100 µM | TGI (PC-3 prostate): > 100 µM | TGI (RPMI-8226 leukemia): > 100 µM | TGI (RXF 393 renal): > 100000 nM | TGI (SF-268 CNS): > 100 µM | TGI (SF-295 CNS): > 100 µM | TGI (SF-539 CNS): > 100 µM | TGI (SK-MEL-2 melanoma): 74.8 µM | TGI (SK-MEL-28 melanoma): > 100 µM | TGI (SK-MEL-5 melanoma): > 100000 nM | TGI (SN12C renal): > 100000 nM | TGI (SNB-19 CNS): > 100 µM | TGI (SNB-75 CNS): > 100000 nM | TGI (SR leukemia): 40.7 µM | TGI (SW-620 colon): > 100 µM | TGI (T-47D breast): > 100 µM | TGI (TK-10 renal): > 100 µM | TGI (U251 CNS): > 100 µM | TGI (UACC-257 melanoma): > 100 µM | TGI (UACC-62 melanoma): > 100 µM | TGI (UO-31 renal): 77.9 µM

C=CCN=c1sc2c(n1NC(=O)c1cc3ccc1CCc1ccc(cc1)CC3)C(=O)c1ccccc1C2=O
GI50 (786-0 renal): 2300 nM | TGI (786-0 renal): 5.7 µM | GI50 (A498 renal): 10.5 µM | TGI (A498 renal): 47 µM | GI50 (A549 NSCLC): 2260 nM | TGI (A549 NSCLC): 5.61 µM | GI50 (ACHN renal): 1420 nM | TGI (ACHN renal): 2910 nM | GI50 (BT-549 breast): 1530 nM | TGI (BT-549 breast): 2910 nM | GI50 (CAKI-1 renal): 1180 nM | TGI (CAKI-1 renal): 2860 nM | GI50 (CCRF-CEM leukemia): 2390 nM | TGI (CCRF-CEM leukemia): > 100 µM | GI50 (COLO 205 colon): 1940 nM | TGI (COLO 205 colon): 4.24 µM | GI50 (DU-145 prostate): 1850 nM | TGI (DU-145 prostate): 3.45 µM | GI50 (EKVX NSCLC): 1390 nM | TGI (EKVX NSCLC): 3.46 µM | GI50 (HCC-2998 colon): 1620 nM | TGI (HCC-2998 colon): 3.14 µM | GI50 (HCT-116 colon): 577 nM | TGI (HCT-116 colon): 2580 nM | GI50 (HCT-15 colon): 1520 nM | TGI (HCT-15 colon): 3.5 µM | GI50 (HL-60(TB) leukemia): 395 nM | TGI (HL-60(TB) leukemia): 3.26 µM | GI50 (HOP-62 NSCLC): 1960 nM | TGI (HOP-62 NSCLC): 4.85 µM | GI50 (HOP-92 NSCLC): 1560 nM | TGI (HOP-92 NSCLC): 4.19 µM | GI50 (HS 578T breast): 2040 nM | TGI (HS 578T breast): 6.93 µM | GI50 (HT29 colon): 3.09 µM | TGI (HT29 colon): > 100 µM | GI50 (IGROV1 ovarian): 1130 nM | TGI (IGROV1 ovarian): 3.21 µM | GI50 (KM12 colon): 2680 nM | TGI (KM12 colon): 8.8 µM | GI50 (LOX IMVI melanoma): 532 nM | TGI (LOX IMVI melanoma): 2100 nM | GI50 (M14 melanoma): 1630 nM | TGI (M14 melanoma): 3.3 µM | GI50 (MALME-3M melanoma): 383 nM | TGI (MALME-3M melanoma): 1580 nM | GI50 (MCF7 breast): 1230 nM | TGI (MCF7 breast): 3.36 µM | GI50 (MDA-MB-231 breast): 1270 nM | TGI (MDA-MB-231 breast): 6.68 µM | GI50 (MDA-MB-435): 194 nM | TGI (MDA-MB-435): 363 nM | GI50 (MOLT-4 leukemia): 1220 nM | TGI (MOLT-4 leukemia): 5.76 µM | GI50 (NCI-H226 lung): 1610 nM | TGI (NCI-H226 lung): 3.35 µM | GI50 (NCI-H23 lung): 1460 nM | TGI (NCI-H23 lung): 3.76 µM | GI50 (NCI-H460 lung): 1940 nM | TGI (NCI-H460 lung): 3.97 µM | GI50 (NCI-H522 lung): 1490 nM | TGI (NCI-H522 lung): 4.19 µM | GI50 (OVCAR-3 ovarian): 328 nM | TGI (OVCAR-3 ovarian): 1430 nM | GI50 (OVCAR-4 ovarian): 1260 nM | TGI (OVCAR-4 ovarian): 2560 nM | GI50 (OVCAR-5 ovarian): 2030 nM | TGI (OVCAR-5 ovarian): 4.38 µM | GI50 (OVCAR-8 ovarian): 2130 nM | TGI (OVCAR-8 ovarian): 11.2 µM | GI50 (PC-3 prostate): 1490 nM | TGI (PC-3 prostate): 8.81 µM | GI50 (RXF 393 renal): 1350 nM | TGI (RXF 393 renal): 2710 nM | GI50 (SF-268 CNS): 1680 nM | TGI (SF-268 CNS): 4.48 µM | GI50 (SF-295 CNS): 1680 nM | TGI (SF-295 CNS): 3.08 µM | GI50 (SF-539 CNS): 1690 nM | TGI (SF-539 CNS): 3.12 µM | GI50 (SK-MEL-2 melanoma): 1740 nM | TGI (SK-MEL-2 melanoma): 4.32 µM | GI50 (SK-MEL-28 melanoma): 1870 nM | TGI (SK-MEL-28 melanoma): 3.35 µM | GI50 (SK-MEL-5 melanoma): 1410 nM | TGI (SK-MEL-5 melanoma): 2750 nM | GI50 (SK-OV-3 ovarian): 3.7 µM | TGI (SK-OV-3 ovarian): 23.4 µM | GI50 (SN12C renal): 1220 nM | TGI (SN12C renal): 2790 nM | GI50 (SNB-19 CNS): 1670 nM | TGI (SNB-19 CNS): 3.44 µM | GI50 (SNB-75 CNS): 843 nM | TGI (SNB-75 CNS): 2770 nM | GI50 (SR leukemia): 1780 nM | TGI (SR leukemia): > 100 µM | GI50 (SW-620 colon): 1630 nM | TGI (SW-620 colon): 3.45 µM | GI50 (T-47D breast): 2020 nM | TGI (T-47D breast): 7.29 µM | GI50 (TK-10 renal): 4.48 µM | TGI (TK-10 renal): 8.14 µM | GI50 (U251 CNS): 1600 nM | TGI (U251 CNS): 4.28 µM | GI50 (UACC-257 melanoma): 1550 nM | TGI (UACC-257 melanoma): 3.15 µM | GI50 (UACC-62 melanoma): 1630 nM | TGI (UACC-62 melanoma): 3.91 µM | GI50 (UO-31 renal): 496 nM | TGI (UO-31 renal): 2.09 µM
